Where a SMILES comes first, the peptide text is derived from it. Bridges are numbered along the chain shown (N, C = ends).
Assays:
[1] = system: Burkholderia pseudomallei strains MSHR1364, MSHR2154 and MSHR10517; conditions: 24 h
EC958 WT = test: Co-treatment of planktonic bacteria with peptides and zinc; type: cell-based, Escherichia coli; conditions: 0.1 mM zinc
EC958ΔzntA = test: as above; type: cell-based, Escherichia coli; conditions: 0.1 mM zinc
BMMs = test: Flow cytometry to measure peptide internalization; type: cell-based, mouse; conditions: Alexa Fluor 488-labelled peptides, 1 h
red blood cells (RBCs) = test: Red blood cell hemolysis assay; type: cell-based, human; conditions: for fold less hemolytic than native tachyplesin I and polyphemusin I: from RBC CC50; for lysis of RBCs: incubation with 128 µM peptide, 37 °C, 1 h
BMMs infected with EC958 = test: Microscopy to determine location of peptides inside infected BMMs; type: cell-based, mouse; conditions: 8 µM A488-labelled peptide, 1 h, fixed cells, confocal microscopy

SMILES: CC[C@H](C)[C@@H]1NC(=O)CNC(=O)[C@H](CCCNC(=N)N)NC(=O)[C@H](Cc2ccc(O)cc2)NC(=O)[C@@H]2CSSC[C@H](NC1=O)C(=O)N[C@@H](Cc1ccc(O)cc1)C(=O)N[C@@H](CCCNC(=N)N)C(=O)N[C@@H](CCCNC(=N)N)C(=O)N[C@H](C(=O)N[C@@H](CCCNC(=N)N)C(N)=O)CSSC[C@H](NC(=O)[C@H](Cc1c[nH]c3ccccc13)NC(=O)[C@@H](N)CCCCN)C(=O)N[C@@H](Cc1ccccc1)C(=O)N[C@@H](CCCNC(=N)N)C(=O)N[C@@H](C(C)C)C(=O)N2 [Tachyplesin I] (H-KWCFRVCYRGICYRRCR-NH2; disulfide 3-16, 7-12)
- Antimicrobial activity: MIC, Burkholderia pseudomallei [1]: > 64 µM

SMILES: O=S(=O)([O-])[O-].[Zn+2] [zinc, zinc sulfate]
- growth of EC958 WT with zinc alone (EC958 WT): does not significantly inhibit
- growth of EC958ΔzntA with zinc alone (EC958ΔzntA): does not significantly inhibit

SMILES: CC(C)[C@@H]1NC(=O)[C@H](CCCNC(=N)N)NC(=O)[C@H](Cc2ccccc2)NC(=O)[C@@H](NC(=O)[C@H](Cc2c[nH]c3ccccc23)NC(=O)[C@@H](N)CCCCN)CSSC[C@@H](C(=O)N[C@@H](CCCNC(=N)N)C(N)=O)NC(=O)[C@H](CCCNC(=N)N)NC(=O)[C@H](CCCNC(=N)N)NC(=O)[C@H](Cc2ccc(O)cc2)NC(=O)[C@@H]2CSSC[C@H](NC1=O)C(=O)N[C@@H](Cc1ccc(O)cc1)C(=O)N[C@@H](CCCNC(=N)N)C(=O)NCC(=O)N[C@@H](CO)C(=O)N2 [[I11S]tachyplesin I] (H-KWCFRVCYRGSCYRRCR-NH2; disulfide 3-16, 7-12)
- concentration required to internalize 50% of cells compared to tachyplesin I (BMMs): > ten-fold lower concentrations
- fold less hemolytic than native tachyplesin I and polyphemusin I (red blood cells (RBCs)): at least 3 fold
- lysis of RBCs (red blood cells (RBCs)): < 50%

SMILES: CC(C)[C@@H]1NC(=O)[C@H](CCCNC(=N)N)NC(=O)[C@H](Cc2ccccc2)NC(=O)[C@@H](NC(=O)[C@H](Cc2c[nH]c3ccccc23)NC(=O)[C@H](CCCNC(=N)N)NC(=O)[C@@H](N)CCCNC(=N)N)CSSC[C@@H](C(=O)N[C@@H](CCCNC(=N)N)C(N)=O)NC(=O)[C@H](CCCCN)NC(=O)[C@H](CCCNC(=N)N)NC(=O)[C@H](Cc2ccc(O)cc2)NC(=O)[C@@H]2CSSC[C@H](NC1=O)C(=O)N[C@@H](Cc1ccc(O)cc1)C(=O)N[C@@H](CCCNC(=N)N)C(=O)NCC(=O)N[C@@H](Cc1ccccc1)C(=O)N2 [Polyphemusin-I] (H-RRWCFRVCYRGFCYRKCR-NH2; disulfide 4-17, 8-13)
- Antimicrobial activity: MIC, Burkholderia pseudomallei [1]: > 64 µM

SMILES: CC(C)[C@@H]1NC(=O)[C@H](CCCNC(=N)N)NC(=O)[C@H](Cc2ccccc2)NC(=O)[C@@H](NC(=O)[C@H](Cc2c[nH]c3ccccc23)NC(=O)[C@@H](N)CCCCN)CSSC[C@@H](C(=O)N[C@@H](CCCNC(=N)N)C(N)=O)NC(=O)[C@H](CCCNC(=N)N)NC(=O)[C@H](CCCNC(=N)N)NC(=O)[C@H](Cc2ccc(O)cc2)NC(=O)[C@@H]2CSSC[C@H](NC1=O)C(=O)N[C@@H](Cc1ccc(O)cc1)C(=O)N[C@@H](CCCNC(=N)N)C(=O)NCC(=O)N[C@@H](C)C(=O)N2 [[I11A]tachyplesin I] (H-KWCFRVCYRGACYRRCR-NH2; disulfide 3-16, 7-12)
- concentration required to internalize 50% of cells compared to tachyplesin I (BMMs): > ten-fold lower concentrations
- intracellular localization in BMMs infected with EC958 (BMMs infected with EC958): locates mainly within vesicles
- fold less hemolytic than native tachyplesin I and polyphemusin I (red blood cells (RBCs)): at least 3 fold
- lysis of RBCs (red blood cells (RBCs)): < 50%

SMILES: CC(C)C[C@H](NC(=O)[C@H](CCCNC(=N)N)NC(=O)CNC(=O)CNC(=O)[C@@H](N)CCCNC(=N)N)C(=O)N[C@H]1CSSC[C@@H](C(=O)N[C@H](C(=O)NCC(=O)N[C@@H](CCCNC(=N)N)C(N)=O)C(C)C)NC(=O)[C@H](C(C)C)NC(=O)[C@@H]2CSSC[C@H](NC(=O)[C@H](Cc3ccc(O)cc3)NC1=O)C(=O)N[C@@H](CCCNC(=N)N)C(=O)N[C@@H](CCCNC(=N)N)C(=O)N[C@@H](CCCNC(=N)N)C(=O)N[C@@H](Cc1ccccc1)C(=O)N2 [Protegrin-I]
- Antimicrobial activity: MIC, Burkholderia pseudomallei [1]: > 64 µM
